The values below come from PubChem BioAssay (NCI).

Several values for one entry are separate records, joined by “and”; a condition that tells them apart may be missing. Identical values can stand only once.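 Values below derive from 48-hour exposures of cells grown in 96-well plates, with endpoints linearly interpolated between the two concentrations bracketing the appropriate inhibition level. At the GI50, growth is halved. TGI denotes the concentration required for complete inhibition of growth.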

What all share (assay): DTP human tumour cell line panel, 48 h
Test [1] deals with DU-145 prostate.
For test [2], the system named is HCT-116 colon.
Test [3] deals with IGROV1 ovarian.
The test system of test [4] is MCF7 breast.
The test system of test [5] is MOLT-4 leukemia.
Test [6] relates to NCI-H522 lung.
In test [7] the test system is OVCAR-3 ovarian.
Test [8] deals with OVCAR-5 ovarian.
Test [9] has as its system SF-268 CNS.
Test [10] relates to SK-MEL-2 melanoma.

One may read the TGI as the concentration at which net growth stops. Usually GI50 stands for the concentration that inhibits growth by half.

On to `O=CN/C=C/c1cccc(O)c1`, for which the concentration for total growth inhibition (TGI) was more than 97.5 µM in test [1]; 75.6 µM in test [2]; more than 88.2 µM in test [3]; more than 68.4 µM in [4]; more than 100 µM in test [5]; 65.4 µM in test [6]. Besides, the TGI is more than 100 µM in [7], more than 96.1 µM in test [8], more than 93.4 µM in [9] and more than 81.6 µM in test [10].
For `COc1cccc2c1C(=O)c1c(O)c3c(c(O)c1C2=O)CC(O)(C(O)CO)CC3OC1CC(N2CCOCC2)C(O)C(C)O1` (stereo not drawn), the TGI is 3.31 µM in [1]; 0.143 µM in test [2]; 0.0895 µM in [4]; 0.205 µM and 0.185 µM in test [5]; 0.0172 µM and 0.0956 µM in [6]; 0.0926 µM and 0.0935 µM in test [8]. For the same molecule, the TGI is 0.0166 µM and 0.158 µM in test [9]; 0.0117 µM in test [10]. For the same molecule, the GI50 in test [3] is 0.0288 µM; in [5] it was 0.0097 µM and 0.0243 µM; in [6] it was 0.0264 µM; in test [7], 0.0323 µM; in [8] it was 0.0331 µM; in test [9], 0.0265 µM.
For `COc1cc(Nc2c(C#N)cnc3cc(OCCCN4CCN(C)CC4)c(OC)cc23)c(Cl)cc1Cl`, the GI50 in test [1] is 1.19 µM; in [2], 0.746 µM; in test [3], 0.279 µM; in [4], 2.79 µM; in test [5], 1.91 µM; in test [6] it was 0.393 µM. Besides, the GI50 in test [7] was 2.78 µM; in [8], 1.19 µM; in test [9], 2.34 µM; in [10] it was 2.97 µM. The TGI was 14.6 µM in test [1]; 4.71 µM in test [2]; 3.09 µM in [3]; 17.8 µM in test [4]; 7.38 µM in [5]; 6.36 µM in [6]. Besides, the TGI in test [7] is 14.4 µM; in test [8] it was 16.2 µM; in test [9], 10.3 µM; in test [10] it was 8.67 µM.
In the case of `CCn1cnc(C[C@H](NC(=O)[C@@H](NC(=O)Nc2cc(C(F)(F)F)cc(C(F)(F)F)c2)C(C)C)C(=O)OC)c1`, the GI50 was 2.26 µM in test [1]; 1.86 µM in test [2]; 2.33 µM in test [3]; 1.83 µM in test [4]; 2.99 µM in test [5]; 1.78 µM in test [6]. For the same molecule, the GI50 in test [7] was 1.82 µM; in [8] it was 4.98 µM; in test [9], 1.76 µM; in test [10], more than 10 µM. Besides, the TGI in test [1] is 4.84 µM; in test [2], 3.93 µM; in test [3], 5.75 µM; in test [4], 3.8 µM; in [5], 9.35 µM; in test [6] it was 3.98 µM. Also, the TGI is 3.44 µM in test [7], more than 10 µM in test [8], 3.4 µM in test [9] and more than 10 µM in [10].
As to `O=c1cc(-c2ccccc2F)[nH]c2ccc(N3CCCC3)cc12`, the GI50 in test [1] was less than 0.001 µM; in test [3] it was less than 0.001 µM; in test [4], 0.488 µM; in test [5] it was less than 0.001 µM; in test [6] it was less than 0.001 µM; in test [8], 2.53 µM. In addition, the GI50 in test [9] is less than 0.001 µM. The TGI in [4], in test [5], in test [8] and in test [10] was more than 100 µM throughout.
As for `NC(=O)c1ccccc1Nc1ccc2nnc(-c3ccncc3)n2n1`, the GI50 in [1] is 14.3 µM; in [2], 3.77 µM; in test [3], 2.23 µM; in test [4] it was 3.1 µM; in test [5], 5.18 µM; in test [6] it was 4.46 µM. Also, the values for the GI50 in test [7], in test [8] and in test [9] were 13.7 µM, 15.4 µM and 5.56 µM, respectively. Also, the concentration for total growth inhibition (TGI) in test [1] came to 27.3 µM; in test [2], 14.3 µM; in [3] it was 5.41 µM; in test [4] it was 16.1 µM; in [5], 30.4 µM; in [6], 18 µM. Also, the TGI stood at 26.6 µM in [7], 29.8 µM in [8] and 21 µM in test [9].
Consider `COc1c(O)cc2oc(-c3ccc(O)cc3)cc(=O)c2c1O`, for which the TGI is more than 100 µM in test [1]; more than 100 µM in test [2]; 76.9 µM in test [3]; more than 100 µM in test [4]; 83.2 µM in [5]; more than 100 µM in test [6]. The concentration for total growth inhibition (TGI) in test [7], in test [8], in test [9] and in test [10] was more than 100 µM throughout.
On to `Cc1ccc(-c2nc(C#N)c(S(=O)(=O)n3nc(C)cc3N)o2)cc1`, for which the GI50 is 7.8 µM in test [1]; 3.16 µM in [2]; 2.99 µM in [3]; 3.07 µM in test [4]; 1.97 µM in test [5]; 1.65 µM in test [6]. Further, the GI50 in test [7] was 2.08 µM; in test [8], 12.4 µM; in test [9], 16.4 µM; in test [10] it was 15 µM. Besides, the concentration for total growth inhibition (TGI) in test [1] was 20.2 µM; in test [2], 13.2 µM; in [3], 8.28 µM; in test [4] it was 15.5 µM; in test [5] it was 4.77 µM; in test [6], 3.58 µM. Further, the TGI stood at 3.73 µM in test [7], 27.5 µM in [8], 36.2 µM in test [9] and 32.3 µM in test [10].
Consider `O=C(Nc1cccc(-n2cc(-c3ccncc3)c(-c3cc(O)cc(Cl)c3)n2)c1)Nc1ccc(Cl)c(C(F)(F)F)c1`, for which the GI50 in test [1] was 3.27 µM; in test [2], 1.96 µM; in [3] it was 3.81 µM; in [4], 2.63 µM; in test [5], 1.99 µM; in test [6], 1.32 µM. For the same molecule, the GI50 in [7] is 2.34 µM; in test [8], 3.79 µM; in test [9], 3.1 µM; in [10], 2.2 µM. Moreover, the TGI in test [1] was determined as 11.7 µM; in [2], 4.47 µM; in test [3] it was 12.6 µM; in [4], 8.54 µM; in test [5], 5.81 µM; in test [6] it was 4.48 µM. Besides, the TGI turned out to be 6.65 µM in [7], 13.1 µM in [8], 16 µM in test [9] and 4.55 µM in test [10].
